PMC10167227, “Lipid flipping in the omega-3 fatty-acid transporter” (Nature Communications, 2023)

Target: T1, drMfsd2a (Danio rerio isoform B Mfsd2a) (Danio rerio, UniProt Q6DEJ6, N214Q/N225Q/N509Q)
T1 construct: gene mfsd2ab; recombinant in Sf-9 insect cells, N-terminal 10xHis tag removed by TEV; truncated at D22 and D509; DDM-purified
T1 sequence (Q6DEJ6 22-509 N214Q/N225Q/N509Q): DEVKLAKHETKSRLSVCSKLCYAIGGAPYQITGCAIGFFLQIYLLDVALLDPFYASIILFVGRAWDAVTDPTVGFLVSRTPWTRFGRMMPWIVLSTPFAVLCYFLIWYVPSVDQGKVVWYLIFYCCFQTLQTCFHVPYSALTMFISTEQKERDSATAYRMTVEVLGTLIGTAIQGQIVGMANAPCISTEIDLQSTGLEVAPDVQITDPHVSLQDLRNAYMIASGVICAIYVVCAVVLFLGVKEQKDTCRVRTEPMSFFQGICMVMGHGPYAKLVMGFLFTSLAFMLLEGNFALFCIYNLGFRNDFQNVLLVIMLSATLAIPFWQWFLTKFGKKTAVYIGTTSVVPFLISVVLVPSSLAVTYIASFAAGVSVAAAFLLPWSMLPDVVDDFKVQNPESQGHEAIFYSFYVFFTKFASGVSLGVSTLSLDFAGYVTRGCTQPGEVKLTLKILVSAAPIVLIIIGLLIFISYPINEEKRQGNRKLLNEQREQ
Test: single-particle cryo-EM structures of Fab complex
Type: binding
Conditions: co-purified endogenous lipid; identity modelled into lipid-like densities at four positions (1A, 1B, 2B, 3C); inward-facing; pH 8.0, 150 mM NaCl, 0.02% DDM

CC/C=C\C/C=C\C/C=C\CCCCCCCC(=O)OC[C@@H](O)COP(=O)([O-])OCC[N+](C)(C)C [ALA-LPC]
single-particle cryo-EM structures of Fab complex: We therefore modeled ALA-LPC into the four distinct lipid-like densities
